For experiment [1], the target named is Nonstructural protein 1 (Influenza A virus, UniProt Q194T2). It is filed as functional, Influenza A virus (A/California/07/2009(H1N1)).
Experiment [2] concerns INS1. Nature of the experiment: beta cell apoptosis inhibitors, cytokine rescue, dose response, luminescence, retest (AID 449756).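 Further: cell death triggered by IL-1 beta plus TNF-alpha plus IFN-gamma mixture; protective hits raise ATP signal compared with cytokine alone wells.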 In kind it is functional, cell-based. The settings on record: Rattus norvegicus.
The subject of experiment [3] is Streptococcus sp. 'group A'. Nature of the experiment: growth inhibition of control SK(-) GAS strain, dose response, counter-screen for streptokinase expression inhibitor project, luminescence, kanamycin, BacTiterGlo, confirmation (AID 1900). It is filed as functional, organism-based. On the technique in general: Counterscreens check selectivity or assay interference.

In experiment [4] the target is Paired box protein Pax-8 (Homo sapiens, UniProt Q06710). The experiment in a line: inhibitors of PAX8-driven TPO luciferase reporter, dose response, RMG-I cells, cherry-pick (AID 687027).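 Further: luciferase reporter driven by Pax8 target thyroperoxidase promoter measured by SteadyGlo luminescence.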 It is filed as functional, cell-based. For orientation: Reporter assays use an easily measured gene product as a stand-in for the process of interest.
Paired box protein Pax-8, sequence (Q06710 whole entry): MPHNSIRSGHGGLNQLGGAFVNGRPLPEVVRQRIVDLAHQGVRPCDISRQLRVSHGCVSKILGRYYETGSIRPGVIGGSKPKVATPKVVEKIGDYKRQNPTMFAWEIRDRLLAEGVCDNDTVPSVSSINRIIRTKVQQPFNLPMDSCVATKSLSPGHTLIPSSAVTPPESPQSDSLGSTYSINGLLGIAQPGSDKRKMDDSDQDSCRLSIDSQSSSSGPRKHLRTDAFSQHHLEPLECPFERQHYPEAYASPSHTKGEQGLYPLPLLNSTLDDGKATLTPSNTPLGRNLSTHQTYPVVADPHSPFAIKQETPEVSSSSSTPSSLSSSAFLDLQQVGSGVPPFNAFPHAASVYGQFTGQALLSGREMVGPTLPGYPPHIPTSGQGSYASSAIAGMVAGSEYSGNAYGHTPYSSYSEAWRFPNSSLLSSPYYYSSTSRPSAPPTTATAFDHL
The target of experiment [5] is T1, Serine/threonine-protein phosphatase (Candida dubliniensis (strain CD36 / CBS 7987 / NCPF 3949 / NRRLY-17841) (Yeast), UniProt B9W6M3).
T1 sequence (B9W6M3 whole entry): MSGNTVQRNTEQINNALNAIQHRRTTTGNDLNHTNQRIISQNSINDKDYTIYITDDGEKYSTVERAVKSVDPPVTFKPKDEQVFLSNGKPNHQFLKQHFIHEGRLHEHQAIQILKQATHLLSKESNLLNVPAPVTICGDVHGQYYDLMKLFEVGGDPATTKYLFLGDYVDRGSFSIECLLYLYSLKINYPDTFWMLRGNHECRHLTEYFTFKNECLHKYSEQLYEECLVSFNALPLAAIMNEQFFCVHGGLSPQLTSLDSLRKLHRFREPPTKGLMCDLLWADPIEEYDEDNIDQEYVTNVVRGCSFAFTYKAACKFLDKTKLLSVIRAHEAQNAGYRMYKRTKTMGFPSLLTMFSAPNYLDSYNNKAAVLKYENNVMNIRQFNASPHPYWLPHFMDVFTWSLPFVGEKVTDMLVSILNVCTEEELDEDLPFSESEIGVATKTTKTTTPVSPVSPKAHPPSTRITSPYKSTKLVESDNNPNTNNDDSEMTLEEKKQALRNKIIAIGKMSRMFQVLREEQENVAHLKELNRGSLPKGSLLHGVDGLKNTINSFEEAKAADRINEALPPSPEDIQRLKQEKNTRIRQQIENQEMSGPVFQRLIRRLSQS
Nature of the experiment: calcineurin pathway inhibitors in yeast reporter, dose response, S. cerevisiae, CDRE-lacZ, luminescence, secondary (AID 2388).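 Further: yeast reporter cells carrying a calcineurin-responsive lacZ construct stimulated with calcium chloride; luminescent beta-galactosidase reporter signal in whole cells rather than isolated phosphatase activity; potency for inhibition where a drop in reporter signal means calcineurin blockade.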 In kind it is functional, cell-based.

A short description of experiment [6]: NIH-3T3 fibroblast cytotoxicity, dose response, cytotoxicity control, cell-based, fluorescence, Alamar Blue, secondary assay (AID 2327).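 Further: NIH-3T3 mouse fibroblasts cultured with fluconazole at 8 µg/mL.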 In kind it is functional. (In general: Resazurin is reduced to fluorescent resorufin, in cell work by metabolically active cells.)
For experiment [7], the target named is ATP-dependent molecular chaperone HSP82 (Candida albicans (strain WO-1) (Yeast), UniProt C4YTQ8). Nature of the experiment: loss of DOC-induced GRE-beta-galactosidase reporter signal, dose response, Hsp90 inhibitor project, S. cerevisiae, luminescence (AID 2400).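 Further: beta-galactosidase luminescence from glucocorticoid response element reporter as proxy for Hsp90 function; inhibitor potency where signal loss means Hsp90 inhibition.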 In kind it is functional, cell-based.
ATP-dependent molecular chaperone HSP82, sequence (C4YTQ8 whole entry): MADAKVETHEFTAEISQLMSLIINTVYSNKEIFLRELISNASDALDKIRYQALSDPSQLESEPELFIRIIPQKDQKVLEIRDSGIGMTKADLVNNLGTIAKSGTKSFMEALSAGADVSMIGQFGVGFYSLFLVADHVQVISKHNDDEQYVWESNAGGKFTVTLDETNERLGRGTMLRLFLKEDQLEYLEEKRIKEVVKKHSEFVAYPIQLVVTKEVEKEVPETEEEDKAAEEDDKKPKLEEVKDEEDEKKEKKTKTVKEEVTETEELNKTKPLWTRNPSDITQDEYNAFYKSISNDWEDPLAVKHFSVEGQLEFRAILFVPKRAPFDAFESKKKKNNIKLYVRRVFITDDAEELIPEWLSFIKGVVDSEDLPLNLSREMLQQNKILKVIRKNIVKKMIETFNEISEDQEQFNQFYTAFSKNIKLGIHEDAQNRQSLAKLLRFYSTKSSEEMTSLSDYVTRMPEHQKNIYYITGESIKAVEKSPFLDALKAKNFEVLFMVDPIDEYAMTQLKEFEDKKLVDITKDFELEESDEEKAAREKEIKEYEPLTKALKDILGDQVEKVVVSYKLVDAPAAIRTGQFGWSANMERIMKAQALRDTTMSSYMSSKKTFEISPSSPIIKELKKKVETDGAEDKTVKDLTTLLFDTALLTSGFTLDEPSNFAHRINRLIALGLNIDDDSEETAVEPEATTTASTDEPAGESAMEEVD
Experiment [8] in a line: Luminescence-based counterscreen assay for KLF5 inhibitors: dose response cell-based high throughput screening assay to identify cytotoxic compounds using the IEC-6 intestinal epithelial cell line. [Related pubchem assays: 1700 (Primary screen.), 1834 (Confirmation screen.), 1858 (Summary AID.), 1905 (Counterscreen.)]. It is filed as functional.
The nature of experiment [9]: C. albicans growth with fluconazole, confirmation, fluorescence, retest (AID 2467). In kind it is functional, cell-based.
In experiment [10] the test system is Streptococcus. The experiment in a line: Group A Streptococcus viability loss, dose response, counter-screen for streptokinase expression inhibitor project, luminescence, BacTiterGlo (AID 1915).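 Further: potency for reduction of bacterial viability or growth.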 It is filed as functional, organism-based.
Experiment [11] can be described thus: growth suppression of beta-catenin-knockout colon cells, dose response, cell-based, HCT116, human colon tumor (AID 1045).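 Further: HCT116 colon tumor cells with beta catenin knocked out; cells exposed to compound for 60 hours.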 In kind it is functional.
A short description of experiment [12]: growth suppression of PTEN-null colon cells, dose response, cell-based, HCT116 PTEN knockout (AID 1047).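 Further: HCT116 colon tumor cells with PTEN knocked out; cells exposed to compound for 60 hours before readout; potency for loss of cell viability measured by luminescence.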 In kind it is functional.
Experiment [13] in a line: cytotoxicity in HPDE-C7 cells, cell-based, fluorescence, HTS (AID 430). In kind it is functional. The conditions noted are these: Homo sapiens.
Experiment [14] in a line: cytotoxicity in KRAS-transformed pancreatic duct cells, primary screen, cell-based, fluorescence, HTS (AID 431). In kind it is functional. The settings on record: Homo sapiens.
The nature of experiment [15]: cytotoxicity in MIN6 insulinoma cells, dose response, cytotoxicity control, cell-based, mouse insulinoma (AID 2122).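 Further: confirmatory high-throughput counterscreen run to flag cytotoxic compounds; mouse MIN-6 beta cells carrying an insulin promoter eGFP reporter.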 It is filed as functional.
The nature of experiment [16]: insulin promoter down-regulators in MIN6 cells, imaging, high-content screening, mouse beta cells (AID 1628). In kind it is functional.
The target of experiment [17] is T2, Mucolipin-3 (Homo sapiens, UniProt Q8TDD5).
T2 sequence (Q8TDD5 whole entry): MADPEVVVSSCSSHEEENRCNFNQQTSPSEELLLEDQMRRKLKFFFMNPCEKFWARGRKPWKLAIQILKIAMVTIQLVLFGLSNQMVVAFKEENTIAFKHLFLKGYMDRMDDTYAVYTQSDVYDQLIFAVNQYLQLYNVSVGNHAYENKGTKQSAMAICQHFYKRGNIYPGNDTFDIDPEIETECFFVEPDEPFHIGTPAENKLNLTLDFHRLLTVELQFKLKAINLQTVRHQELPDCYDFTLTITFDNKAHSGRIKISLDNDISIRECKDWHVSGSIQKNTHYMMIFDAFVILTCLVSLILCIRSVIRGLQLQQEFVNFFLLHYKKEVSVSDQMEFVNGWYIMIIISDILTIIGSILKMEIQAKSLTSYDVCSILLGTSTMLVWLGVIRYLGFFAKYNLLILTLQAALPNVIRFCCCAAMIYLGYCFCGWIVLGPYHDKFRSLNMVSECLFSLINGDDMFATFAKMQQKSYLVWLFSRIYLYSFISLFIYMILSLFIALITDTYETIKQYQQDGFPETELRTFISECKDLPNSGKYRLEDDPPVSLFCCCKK
Nature of the experiment: Dose response cell-based high-throughput screening assay for agonists of the transient receptor potential channel ML3 (TRPML3). [Related pubchem assays: 1526, 1424, 1448 ]. In kind it is functional.

Experiment [18] concerns the target Ion channel NompC (Danio rerio, UniProt Q7T1G6). Nature of the experiment: Fluorescence counterscreen assay for TRPML3 agonists: dose response cell-based high-throughput screening assay to identify agonists of the transient receptor potential channel N1 (TRPN1). [Related pubchem assays: 1526, 1424, 1448 ]. It is filed as functional.
Experiment [19] deals with Lytic switch protein BZLF1 (Epstein-Barr virus (strain B95-8) (HHV-4) (Human herpesvirus 4), UniProt P03206). Nature of the experiment: EBV ZTA inhibitors, dose response, counter-screen for EBNA-1 inhibitor project, biochemical, fluorescence polarization, Epstein-Barr virus, 1536-well (AID 2377).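 Further: fluorescence polarization of Cy5-labelled ZRE DNA probe bound by purified Zta.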 Also noted: species or system human gammaherpesvirus 4.
Lytic switch protein BZLF1, sequence (P03206 whole entry): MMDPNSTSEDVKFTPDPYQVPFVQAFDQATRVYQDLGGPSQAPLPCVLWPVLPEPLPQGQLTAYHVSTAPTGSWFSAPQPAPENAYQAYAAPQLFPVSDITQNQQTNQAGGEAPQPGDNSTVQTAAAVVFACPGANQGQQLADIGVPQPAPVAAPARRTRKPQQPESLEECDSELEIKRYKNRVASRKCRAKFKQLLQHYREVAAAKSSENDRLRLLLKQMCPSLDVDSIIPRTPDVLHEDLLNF
For experiment [20], the target named is Epstein-Barr nuclear antigen 1 (Epstein-Barr virus (strain B95-8) (HHV-4) (Human herpesvirus 4), UniProt P03211). Nature of the experiment: EBNA-1 inhibitors, dose response, biochemical, fluorescence polarization, 1536-well (AID 2381).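 Further: fluorescence polarization of a Cy5 DNA probe bound by EBNA-1 protein.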 The arrangement: species or system human gammaherpesvirus 4.
Epstein-Barr nuclear antigen 1, sequence (P03211 whole entry): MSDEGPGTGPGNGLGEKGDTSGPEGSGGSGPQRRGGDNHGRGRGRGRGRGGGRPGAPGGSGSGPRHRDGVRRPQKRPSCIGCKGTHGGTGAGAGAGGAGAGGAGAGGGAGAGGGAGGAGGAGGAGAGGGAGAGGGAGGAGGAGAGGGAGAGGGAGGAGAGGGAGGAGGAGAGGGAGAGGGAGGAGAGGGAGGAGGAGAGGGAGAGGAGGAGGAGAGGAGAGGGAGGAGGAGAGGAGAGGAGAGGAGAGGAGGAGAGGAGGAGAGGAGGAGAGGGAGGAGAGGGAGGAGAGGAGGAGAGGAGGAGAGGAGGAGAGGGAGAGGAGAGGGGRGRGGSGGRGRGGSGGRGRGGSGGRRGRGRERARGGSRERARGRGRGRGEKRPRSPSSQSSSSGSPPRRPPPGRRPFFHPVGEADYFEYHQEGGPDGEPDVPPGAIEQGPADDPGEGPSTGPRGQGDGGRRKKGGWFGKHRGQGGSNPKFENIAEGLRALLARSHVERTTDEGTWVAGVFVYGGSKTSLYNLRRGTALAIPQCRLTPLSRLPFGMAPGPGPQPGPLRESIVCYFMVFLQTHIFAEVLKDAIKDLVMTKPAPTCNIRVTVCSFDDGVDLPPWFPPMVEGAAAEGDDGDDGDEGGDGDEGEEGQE
Experiment [21] deals with Cytochrome P450 2C9 (Homo sapiens, UniProt P11712). The conditions noted are these: Potency.
Cytochrome P450 2C9, sequence (P11712 whole entry): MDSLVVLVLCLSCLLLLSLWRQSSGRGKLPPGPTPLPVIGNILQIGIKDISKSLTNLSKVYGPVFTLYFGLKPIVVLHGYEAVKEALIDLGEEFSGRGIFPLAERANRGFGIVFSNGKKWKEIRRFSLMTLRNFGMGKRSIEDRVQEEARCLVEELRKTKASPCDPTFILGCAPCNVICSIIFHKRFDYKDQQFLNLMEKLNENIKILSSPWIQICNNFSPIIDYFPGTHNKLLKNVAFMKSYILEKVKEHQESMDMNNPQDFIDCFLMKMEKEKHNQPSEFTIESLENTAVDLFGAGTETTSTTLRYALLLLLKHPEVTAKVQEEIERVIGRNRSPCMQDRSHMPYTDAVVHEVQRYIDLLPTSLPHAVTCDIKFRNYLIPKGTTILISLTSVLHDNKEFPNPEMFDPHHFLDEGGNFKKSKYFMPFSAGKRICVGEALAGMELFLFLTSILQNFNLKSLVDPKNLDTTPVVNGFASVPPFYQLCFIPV

Active and inactive are the calls of the source.

Nonstructural protein 1, sequence (Q194T2 whole entry): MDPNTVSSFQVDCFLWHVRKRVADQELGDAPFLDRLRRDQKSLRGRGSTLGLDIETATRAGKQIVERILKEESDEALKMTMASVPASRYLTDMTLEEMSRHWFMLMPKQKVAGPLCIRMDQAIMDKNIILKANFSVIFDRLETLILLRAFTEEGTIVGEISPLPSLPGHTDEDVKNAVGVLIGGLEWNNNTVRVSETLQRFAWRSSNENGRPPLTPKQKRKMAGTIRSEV
Ion channel NompC, sequence (Q7T1G6 whole entry): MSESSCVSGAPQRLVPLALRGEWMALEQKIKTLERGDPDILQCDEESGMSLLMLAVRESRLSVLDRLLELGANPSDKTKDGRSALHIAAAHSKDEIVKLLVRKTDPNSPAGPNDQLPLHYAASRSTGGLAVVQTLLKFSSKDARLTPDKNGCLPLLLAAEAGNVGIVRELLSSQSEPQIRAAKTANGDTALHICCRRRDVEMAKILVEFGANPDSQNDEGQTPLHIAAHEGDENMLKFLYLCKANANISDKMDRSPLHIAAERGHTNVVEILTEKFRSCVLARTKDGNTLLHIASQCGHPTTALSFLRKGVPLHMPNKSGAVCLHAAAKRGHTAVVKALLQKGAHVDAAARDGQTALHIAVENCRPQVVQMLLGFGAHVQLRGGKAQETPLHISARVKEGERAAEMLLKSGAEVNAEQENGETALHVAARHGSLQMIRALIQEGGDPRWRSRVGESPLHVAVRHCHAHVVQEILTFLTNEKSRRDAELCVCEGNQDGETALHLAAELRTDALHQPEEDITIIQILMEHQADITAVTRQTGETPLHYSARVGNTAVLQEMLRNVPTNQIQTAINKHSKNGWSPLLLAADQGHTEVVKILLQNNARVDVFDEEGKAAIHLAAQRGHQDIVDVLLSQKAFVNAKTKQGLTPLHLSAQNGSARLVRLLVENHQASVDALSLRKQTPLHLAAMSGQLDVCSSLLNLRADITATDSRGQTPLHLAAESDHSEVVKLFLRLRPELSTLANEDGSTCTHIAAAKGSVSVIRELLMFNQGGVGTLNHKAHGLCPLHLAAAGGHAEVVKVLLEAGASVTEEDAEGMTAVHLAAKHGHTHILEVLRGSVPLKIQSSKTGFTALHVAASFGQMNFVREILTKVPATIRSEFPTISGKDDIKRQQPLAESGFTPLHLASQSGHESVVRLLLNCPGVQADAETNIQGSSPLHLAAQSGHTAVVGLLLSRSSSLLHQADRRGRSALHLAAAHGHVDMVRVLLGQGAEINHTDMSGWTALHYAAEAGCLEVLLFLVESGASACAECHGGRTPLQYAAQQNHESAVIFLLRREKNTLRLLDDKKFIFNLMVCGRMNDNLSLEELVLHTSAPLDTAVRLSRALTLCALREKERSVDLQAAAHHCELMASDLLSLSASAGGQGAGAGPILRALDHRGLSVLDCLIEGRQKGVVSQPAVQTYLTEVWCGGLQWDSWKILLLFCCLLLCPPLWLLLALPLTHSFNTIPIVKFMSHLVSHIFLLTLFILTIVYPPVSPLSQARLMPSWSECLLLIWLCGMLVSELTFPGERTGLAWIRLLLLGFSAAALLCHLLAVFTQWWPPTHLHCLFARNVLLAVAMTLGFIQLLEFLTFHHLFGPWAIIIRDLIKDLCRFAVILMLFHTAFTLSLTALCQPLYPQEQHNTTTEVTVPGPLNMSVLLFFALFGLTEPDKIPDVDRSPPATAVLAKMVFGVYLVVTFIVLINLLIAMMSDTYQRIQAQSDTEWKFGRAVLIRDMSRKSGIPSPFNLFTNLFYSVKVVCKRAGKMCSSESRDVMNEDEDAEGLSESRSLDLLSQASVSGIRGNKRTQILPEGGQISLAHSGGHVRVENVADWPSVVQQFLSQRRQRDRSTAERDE

On to `CCN(CC)S(=O)(=O)c1cc(OC)ccc1N=Nc1ccc(O)c2ncccc12`, for which the IC50 (usually the concentration needed to halve the response being measured) in experiment [1] was 11.7 µM (active); in experiment [8], 15.7 µM (not active). The concentration at half-maximal activity (AC50) – broadly, the concentration giving half of the maximal activity seen – in experiment [2] is 2.41 µM (active); in [4], 1.27 µM (active). For the same compound, the concentration for a half-maximal effect (EC50) (usually the midpoint of the concentration-response curve) in experiment [3] was 1.61 µM (active); in experiment [5] it was > 180 µM (inactive); in experiment [6], 96.3 µM (active); in experiment [7], 13.5 µM (active); in experiment [9], 0.524 µM (active); in [10], 8.84 µM (active).

For `CCOC(=O)C(C(C)=O)c1c(Br)c(O)c(O)c2c(C(=O)c3ccc(C)cc3)coc12` (stereo not drawn), the results for the IC50 in experiment [1], in experiment [15] and in experiment [16] were > 100 µM (active), 3.43 µM (active) and 4.26 µM (active), respectively. Moreover, the EC50 in experiment [11] was 15.8 µM (active); in [12], 18.8 µM (active); in [13] it was 3.41 µM (active); in [14], 3.75 µM (active). Besides, the AC50 in [2] is 3.56 µM (active).

Turning to `Cc1ccc(S(=O)(=O)Nc2cc(C(F)(F)F)ccc2N2CCOCC2)c(C)c1`, the figures for the EC50 in experiment [17] and in [18] were 2.48 µM (active) and > 29.9 µM (not active), respectively.

On to `O=C(NCc1ccc2c(c1)OCO2)C1CCC(CNS(=O)(=O)c2ccc(Cl)cc2)CC1` (stereo not drawn), for which the concentration for half-maximal inhibition (IC50) is > 111 µM (not active) in [19] and > 148 µM (not active) in experiment [20].

For `CC(C)[C@@H](CC(=O)N[C@@H]1CCCC[C@H]1C(=O)N[C@H](CC(=O)N[C@@H](CCC(=O)O)CC(=O)O)Cc1c[nH]c2ccccc12)NC(=O)C[C@H](CO)NC(=O)[C@@H]1CNCC[C@H]1N`, the AC50 in experiment [21] was 31.6 µM (inconclusive).

Source of the values: ChEMBL document CHEMBL1201862, “PubChem BioAssay data set” (2004).
